CC50 and EC50 data for twelve compounds are collected here from patent publication US20240374598A1, “INHIBITORS OF HUMAN IMMUNODEFICIENCY VIRUS REPLICATION” (ViiV HEALTHCARE UK (NO.5) LIMITED, priority 2018, published 2024).

Some results are limits rather than exact numbers.

Data set [1] is described as follows: Compound cytotoxicity, XTT-based colorimetric assay. Format: cell-based. Conditions: human; uninfected MT2 cells, day 4, XTT assay. The protocol: Compound cytotoxicity and the corresponding CC50 values were determined using the same protocol as described in the antiviral assay except that uninfected cells were used. Cytotoxicity was assessed on day 4 in uninfected MT2 cells by using a XTT (2,3-bis[2-Methoxy-4-nitro-5-sulfophenyl]-2H-tetrazolium-5-carboxyanilide inner salt)-based colorimetric assay (Sigma-Aldrich, St Louis, Mo).

Data set [2] has as its system recombinant NL4-3 virus (nef section replaced with Renilla luciferase gene) in MT-2 cells. As to the kind of experiment: HIV cell culture assay (antiviral activity, luciferase readout). Format: cell-based. The following applies: NL43, MT-2 cells infected for 4-5 days with recombinant NL4-3 Renilla luciferase virus. The protocol: HIV cell culture assay—MT-2 cells, 293T cells and the proviral DNA clone of NL4-3 virus were obtained from the NIH AIDS Research and Reference Reagent Program. MT-2 cells were propagated in RPMI 1640 media supplemented with 10% heat inactivated fetal bovine serum (FBS), […]. The 293T cells were propagated in DMEM media supplemented with 10% heat inactivated FBS, […]. A recombinant NL4-3 proviral clone, in which a section of the nef gene was replaced with the Renilla luciferase gene, was used to make the reference virus used in these studies. The recombinant virus was prepared through transfection of the recombinant NL4-3 proviral clone into 293T cells using Transit-293 Transfection Reagent from Mirus Bio LLC (Madison, WI). Supernatent was harvested after 2-3 days and the amount of virus present was titered in MT-2 cells using luciferase enzyme activity as a marker by measuring luciferase enzyme activity. Luciferase was quantitated using the EnduRen Live Cell Substrate from Promega (Madison, WI). Antiviral activities of compounds toward the recombinant virus were quantified by measuring luciferase activity in MT-2 cells infected for 4-5 days with the recombinant virus in the presence of serial dilutions of the compound.
The 50% effective concentration (EC50) was calculated by using the exponential form of the median effect equation where (Fa)=1/[1+(ED50/drug conc.)m] (Johnson VA, Byington RT. Infectivity Assay. In Techniques in HIV Research. ed. Aldovini A, Walker BD. 71-76. New York: Stockton Press. 1990). The 50% inhibitory concentration (EC50) was calculated by using the exponential form of the median effect equation where percent inhibition=1/[1+(EC50/drug concentration)m], where m is a parameter that reflects the slope of the concentration-response curve.

`CC(F)(F)c1ccc2c(=O)n(-c3ccc(Cl)c4c(NS(C)(=O)=O)nn(CC(F)F)c34)c([C@H](Cc3cc(F)cc(F)c3)NC(=O)Cn3nc(C(F)F)c4c3C(F)(F)[C@@H]3C[C@H]43)nc2c1` [Example 17, N—((S)-1-(3-(4-chloro-1-(2,2-difluoroethyl)-3-(methylsulfonamido)-1H-indazol-7-yl)-7-(1,1-difluoroethyl)-4-oxo-3,4-dihydroquinazolin-2-yl)-2-(3,5-difluorophenyl)ethyl)-2-((3bS,4aR)-3-(difluoromethyl)-5,5-difluoro-3b,4,4a,5-tetrahydro-1H-cyclopropa[3,4]cyclopenta[1,2-c]pyrazol-1-yl)acetamide] had a CC50 at 4 day in data set [1] of over 1000 nM. For the same compound, the EC50 in data set [2] was determined as 0.083 nM.
The compound `Cn1nc(NS(C)(=O)=O)c2c(Cl)ccc(-n3c([C@H](Cc4cc(F)cc(F)c4)NC(=O)Cn4nc(C(F)F)c5c4C(F)(F)[C@@H]4C[C@H]54)nc4cc(O)ccc4c3=O)c21` [Example 4, N—((S)-1-(3-(4-chloro-1-methyl-3-(methylsulfonamido)-1H-indazol-7-yl)-7-hydroxy-4-oxo-3,4-dihydroquinazolin-2-yl)-2-(3,5-difluorophenyl)ethyl)-2-((3bS,4aR)-3-(difluoromethyl)-5,5-difluoro-3b,4,4a,5-tetrahydro-1H-cyclopropa[3,4]cyclopenta[1,2-c]pyrazol-1-yl)acetamide] registered a CC50 at 4 day in data set [1] of over 1000 nM. Also, in data set [2], the EC50 is 0.273 nM.
Taken in the same sequence, the figures for `O=C(Cn1nc(C(F)F)c2c1C(F)(F)[C@@H]1C[C@H]21)N[C@@H](Cc1cc(F)cc(F)c1)c1nc2cc(CCC(F)(F)F)ccc2c(=O)n1-c1ccc(Cl)c2c(NS(=O)(=O)C3CC3)nn(CC(F)F)c12` [Example 24, N—((S)-1-(3-(4-chloro-3-(cyclopropanesulfonamido)-1-(2,2-difluoroethyl)-1H-indazol-7-yl)-4-oxo-7-(3,3,3-trifluoropropyl)-3,4-dihydroquinazolin-2-yl)-2-(3,5-difluorophenyl)ethyl)-2-((3bS,4aR)-3-(difluoromethyl)-5,5-difluoro-3b,4,4a,5-tetrahydro-1H-cyclopropa[3,4]cyclopenta[1,2-c]pyrazol-1-yl)acetamide] were over 1000 nM and 0.155 nM.
Consider `Cn1nc(NS(C)(=O)=O)c2cccc(-n3c([C@H](Cc4cc(F)cc(F)c4)NC(=O)Cn4nc(C(F)F)c5c4C(F)(F)[C@@H]4C[C@H]54)nc4cc(C5CCCC5)ccc4c3=O)c21` [Example 33, N—((S)-1-(7-cyclopentyl-3-(1-methyl-3-(methylsulfonamido)-1H-indazol-7-yl)-4-oxo-3,4-dihydroquinazolin-2-yl)-2-(3,5-difluorophenyl)ethyl)-2-((3bS,4aR)-3-(difluoromethyl)-5,5-difluoro-3b,4,4a,5-tetrahydro-1H-cyclopropa[3,4]cyclopenta[1,2-c]pyrazol-1-yl)acetamide], for which, in data set [1], the CC50 at 4 day was over 1000 nM. Also, the EC50 in data set [2] is 1.26 nM.
Taken in the same sequence, the figures for `CCC(F)(F)c1ccc2c(=O)n(-c3ccc(Cl)c4c(NS(C)(=O)=O)nn(C)c34)c([C@H](Cc3cc(F)cc(F)c3)NC(=O)Cn3nc(C(F)F)c4c3C(F)(F)[C@@H]3C[C@H]43)nc2c1` [Example 20, N—((S)-1-(3-(4-chloro-1-methyl-3-(methylsulfonamido)-1H-indazol-7-yl)-7-(1,1-difluoropropyl)-4-oxo-3,4-dihydroquinazolin-2-yl)-2-(3,5-difluorophenyl)ethyl)-2-((3bS,4aR)-3-(difluoromethyl)-5,5-difluoro-3b,4,4a,5-tetrahydro-1H-cyclopropa[3,4]cyclopenta[1,2-c]pyrazol-1-yl)acetamide] were over 1000 nM and 0.122 nM.
Regarding `CC(C)[C@H](C)Oc1ccc2c(=O)n(-c3ccc(Cl)c4c(NS(C)(=O)=O)nn(C)c34)c([C@H](Cc3cc(F)cc(F)c3)NC(=O)Cn3nc(C(F)F)c4c3C(F)(F)[C@@H]3C[C@H]43)nc2c1` [Example 13, N—((S)-1-(3-(4-chloro-1-methyl-3-(methylsulfonamido)-1H-indazol-7-yl)-7-(((S)-3-methylbutan-2-yl)oxy)-4-oxo-3,4-dihydroquinazolin-2-yl)-2-(3,5-difluorophenyl)ethyl)-2-((3bS,4aR)-3-(difluoromethyl)-5,5-difluoro-3b,4,4a,5-tetrahydro-1H-cyclopropa[3,4]cyclopenta[1,2-c]pyrazol-1-yl)acetamide], the CC50 at 4 day in data set [1] is over 1000 nM. In addition, the EC50 in data set [2] came to 0.239 nM.
On to `COc1ccc2c(=O)n(-c3ccc(Cl)c4c(NS(C)(=O)=O)nn(C)c34)c([C@H](Cc3cc(F)cc(F)c3)NC(=O)Cn3ccc(C(C)C)n3)nc2c1` [Example 5, (S)—N-(1-(3-(4-chloro-1-methyl-3-(methylsulfonamido)-1H-indazol-7-yl)-7-methoxy-4-oxo-3,4-dihydroquinazolin-2-yl)-2-(3,5-difluorophenyl)ethyl)-2-(3-isopropyl-1H-pyrazol-1-yl)acetamide], for which, in data set [1], the CC50 at 4 day is over 1000 nM. In data set [2], the EC50 is 0.758 nM.
Compound `O=C(Cn1nc(C(F)F)c2c1C(F)(F)[C@@H]1C[C@H]21)N[C@@H](Cc1cc(F)cc(F)c1)c1nc2cc(C3CC3)ccc2c(=O)n1-c1ccc(Cl)c2c(NS(=O)(=O)C3CC3)nn(CC(F)F)c12` [Example 31, N—((S)-1-(3-(4-chloro-3-(cyclopropanesulfonamido)-1-(2,2-difluoroethyl)-1H-indazol-7-yl)-7-cyclopropyl-4-oxo-3,4-dihydroquinazolin-2-yl)-2-(3,5-difluorophenyl)ethyl)-2-((3bS,4aR)-3-(difluoromethyl)-5,5-difluoro-3b,4,4a,5-tetrahydro-1H-cyclopropa[3,4]cyclopenta[1,2-c]pyrazol-1-yl)acetamide] yielded a CC50 at 4 day in data set [1] of over 1000 nM. For the same compound, in data set [2], the EC50 came out at 0.046 nM.
Compound `COc1nc2nc([C@H](Cc3cc(F)cc(F)c3)NC(=O)Cn3nc(C(F)F)c4c3C(F)(F)C3CC43)n(-c3ccc(Cl)c4c(NS(C)(=O)=O)nn(C)c34)c(=O)c2cc1Cl` (stereo in doubt) [Example 37, N—((S)-1-(6-chloro-3-(4-chloro-1-methyl-3-(methylsulfonamido)-1H-indazol-7-yl)-7-methoxy-4-oxo-3,4-dihydropyrido[2,3-d]pyrimidin-2-yl)-2-(3,5-difluorophenyl)ethyl)-2-((3bS,4aR)-3-(difluoromethyl)-5,5-difluoro-3b,4,4a,5-tetrahydro-1H-cyclopropa[3,4]cyclopenta[1,2-c]pyrazol-1-yl)acetamide] came in with a 50% cytotoxic concentration (CC50) at 4 day in data set [1] of over 1000 nM. In addition, in data set [2], the EC50 was 0.044 nM.
In turn, `COc1ccc2c(=O)n(-c3ccc(Cl)c4c(NS(C)(=O)=O)nn(C)c34)c([C@H](Cc3cc(F)cc(F)c3)NC(=O)Cn3ccc(C4CC4)n3)nc2n1` [Example 36, (S)—N-(1-(3-(4-chloro-1-methyl-3-(methylsulfonamido)-1H-indazol-7-yl)-7-methoxy-4-oxo-3,4-dihydropyrido[2,3-d]pyrimidin-2-yl)-2-(3,5-difluorophenyl)ethyl)-2-(3-cyclopropyl-1H-pyrazol-1-yl)acetamide] yielded a CC50 at 4 day in data set [1] of over 1000 nM. For the same compound, the EC50 in data set [2] turned out to be 0.131 nM.
As to `COc1cnc2c(=O)n(-c3ccc(Cl)c4c(NS(C)(=O)=O)nn(C)c34)c([C@H](Cc3cc(F)cc(F)c3)NC(=O)Cn3nc(C(F)F)c4c3C(F)(F)C3CC43)nc2c1` (stereo in doubt) [Example 39, N—((S)-1-(3-(4-chloro-1-methyl-3-(methylsulfonamido)-1H-indazol-7-yl)-7-methoxy-4-oxo-3,4-dihydropyrido[3,2-d]pyrimidin-2-yl)-2-(3,5-difluorophenyl)ethyl)-2-((3bS,4aR)-3-(difluoromethyl)-5,5-difluoro-3b,4,4a,5-tetrahydro-1H-cyclopropa[3,4]cyclopenta[1,2-c]pyrazol-1-yl)acetamide], the CC50 at 4 day in data set [1] was over 1000 nM. For the same compound, in data set [2], the EC50 turned out to be 0.016 nM.
Taken in the same sequence, the figures for `COc1ccc2c(=O)n(-c3ccc(Cl)c4c(NS(C)(=O)=O)nn(C)c34)c([C@H](Cc3cc(F)cc(F)c3)NC(=O)Cn3ccc(C(C)C)n3)nc2n1` [Example 35, (S)—N-(1-(3-(4-chloro-1-methyl-3-(methylsulfonamido)-1H-indazol-7-yl)-7-methoxy-4-oxo-3,4-dihydropyrido[2,3-d]pyrimidin-2-yl)-2-(3,5-difluorophenyl)ethyl)-2-(3-isopropyl-1H-pyrazol-1-yl)acetamide] were over 1000 nM and 0.235 nM.
